{"source": "patent US11312702B2", "about": "“Substituted quinoline-8-carbonitrile derivatives having androgen receptor degradation activity and uses thereof” (ACCUTAR BIOTECHNOLOGY INC., priority 2019, dated 2022)", "type_in_all_cases": "cell-based", "key": {"androgen receptor (AR) [1]": {"molecular_target": "T1, androgen receptor (AR) (Homo sapiens, UniProt P10275)", "T1 construct": "endogenous in cells; host or cells: VCAP", "T1 sequence (P10275 1-920)": "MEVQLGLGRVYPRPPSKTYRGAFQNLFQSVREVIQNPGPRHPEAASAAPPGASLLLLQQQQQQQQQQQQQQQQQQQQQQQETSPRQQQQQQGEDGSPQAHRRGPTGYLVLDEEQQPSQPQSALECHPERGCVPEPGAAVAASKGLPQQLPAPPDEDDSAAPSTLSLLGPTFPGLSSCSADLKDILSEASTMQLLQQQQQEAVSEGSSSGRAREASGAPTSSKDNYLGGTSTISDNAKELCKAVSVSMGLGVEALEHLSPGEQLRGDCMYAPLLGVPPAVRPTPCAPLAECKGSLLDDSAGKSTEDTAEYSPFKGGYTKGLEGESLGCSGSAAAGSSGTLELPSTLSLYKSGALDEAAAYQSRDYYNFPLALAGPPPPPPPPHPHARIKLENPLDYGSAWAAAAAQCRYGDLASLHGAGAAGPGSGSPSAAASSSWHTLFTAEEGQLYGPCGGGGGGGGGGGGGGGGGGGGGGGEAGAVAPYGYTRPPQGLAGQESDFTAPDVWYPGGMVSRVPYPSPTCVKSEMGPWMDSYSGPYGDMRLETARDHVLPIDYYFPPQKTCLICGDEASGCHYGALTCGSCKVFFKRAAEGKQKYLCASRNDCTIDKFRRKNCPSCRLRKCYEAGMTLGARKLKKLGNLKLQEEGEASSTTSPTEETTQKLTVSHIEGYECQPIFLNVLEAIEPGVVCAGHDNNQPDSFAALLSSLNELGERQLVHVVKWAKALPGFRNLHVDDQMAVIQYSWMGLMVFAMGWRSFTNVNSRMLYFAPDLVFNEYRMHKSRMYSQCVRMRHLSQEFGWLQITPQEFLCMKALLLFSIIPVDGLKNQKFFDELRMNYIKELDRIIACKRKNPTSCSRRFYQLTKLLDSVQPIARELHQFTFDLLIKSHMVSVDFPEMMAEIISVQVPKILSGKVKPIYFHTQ", "test": "AR degradation activity in VCAP cells (Western blot)", "conditions": "VCAP cell line, 24 hours after administration; DC50 = concentration for 50% target protein degradation", "procedure": "(§1) LNCAP, VCAP and 22Rv1 cells were plated in 24-well plates at 1.5×10E5 cells/well in the RPMI growth medium containing 10% FBS and 1% Penicillin Streptomycin, and then incubated at 37° C. overnight. The following day, the test compound was administered to the cells by using 1000× compound stock solution prepared in DMSO at various concentrations. After administration of the compound, the cells were then incubated at 37° C. for 24 hours. Upon completion, the cells were washed with PBS and protein was collected in Laemmli sample buffer (1×; VWR International). Proteins in cell lysate were separated by SDS-PAGE and transferred to Odyssey nitrocellulose membranes (Licor) with iblot® dry blotting transfer system (ThermoFisher). Nonspecific binding was blocked by incubating membranes with Intercept Blocking Buffer (Licor) for 1 hour at room temperature with gentle shaking. The membranes were then incubated overnight at 4° C. with Primary antibodies rabbit anti-AR (1:1,000, Cell Signaling, 5153) and mouse anti-GAPDH (1:5,000, Santa Cruz Biotechnology, sc-47724) diluted in Intercept Blocking Buffer containing 0.1% Tween 20. After washing 3 times with TBS-T, the membranes were incubated with IRDye® […] goat anti-mouse IgG (1:20,000, Licor) or IRDye®8000W goat anti-rabbit IgG (1:20,000, Licor) for 1 hour. After TBS-T washes, membranes were rinsed in TBS and scanned on Odyssey® CLx Imaging System (Licor). The bands were quantified using Image Studio™ Software (Licor).\n(§2) Table 4 summarizes the androgen receptor (AR) degradative activity and cell growth inhibition of exemplary compounds in (a) LNCAP, VCAP, and 22Rv1 cell lines 24 hours after administration of the compound; (b) RAMOS cell line 3 days after administration of the compound; and (c) VCAP cell line 6 days after administration of the compound. DC50: compound concentration needed for 50% target protein degradation."}, "RAMOS cells": {"test_system": "RAMOS cells", "test": "Cell growth inhibition for Ramos cells (CellTiter-Glo)", "conditions": "Homo sapiens, 72 h; RAMOS cell line, 3 days after administration", "procedure": "RAMOS cells (ATCC) were seeded in 96-well plates at 16,000 cell/well in 90 μl of RPMI growth medium containing 10% Heat-Inactivated Fetal Bovine Serum and 1% Penicillin/Streptomycin. The test compound was administered to the cells by using 10× compound stock solution prepared in growth medium at various concentrations. After administration of the compound, cells were then incubated at 37° C. for 3 days. Before CellTiter-Glo assay, the plates were equilibrated at room temperature for approximately 10 minutes. 100 ul of CellTiter-Glo® Reagent (Promega) was added to each well. The plates were then incubated at room temperature for 10 minutes and luminescence was recorded by EnSpire plate reader (PerkinElmer).\nas §2"}, "VCAP cells": {"test_system": "VCAP cells", "test": "Cell growth inhibition for VCAP cells (CellTiter-Glo)", "conditions": "Homo sapiens, 144 h; VCAP cell line, 6 days after administration, 0.1 nM R1881, charcoal-stripped FBS", "procedure": "VCAP cells (ATCC) were seeded in 96-well plates at 3000 cell/well in 80 μl of DMEM growth medium containing 10% charcoal-stripped FBS (CSS) and 1% Penicillin/Streptomycin. Cells were incubated at 37° C. overnight. The following day, the test compound was administered to the cells by using 10× compound stock solution prepared in growth medium at various concentrations. Four hours later, 0.1 nM R1881 (Sigma) was administered to the cells by using 10× compound stock solution prepared in growth medium. 0.1% DMSO with or without 0.1 nM R1881 was administered as control. Cells were then incubated at 37° C. for 6 days. Before CelTiter-Glo assay, the plates were equilibrated at room temperature for approximately 10 minutes. 100 ul of CellTiter-Glo® Reagent (Promega) was added to each well. The plates were then incubated at room temperature for 10 minutes and luminescence was recorded by EnSpire plate reader (PerkinElmer).\nas §2"}, "androgen receptor (AR) [2]": {"test_system": "androgen receptor (AR)", "test": "AR degradation activity in 22Rv1 cells (Western blot)", "conditions": "22Rv1 cell line, 24 hours after administration; DC50 = concentration for 50% target protein degradation", "procedure": "as §1, §2"}, "androgen receptor (AR) [3]": {"molecular_target": "T2, androgen receptor (AR) (Homo sapiens, UniProt P10275, T878A)", "T2 construct": "endogenous in cells; host or cells: LNCAP", "T2 sequence (P10275 1-920 T878A)": "T1 sequence (P10275 1-920) with T878A", "test": "AR degradation activity in LNCAP cells (Western blot)", "conditions": "LNCAP cell line, 24 hours after administration; DC50 = concentration for 50% target protein degradation", "procedure": "as §1, §2"}}, "note": "Residue numbers refer to the chain shown, from its start."}
{"smiles": "CC1(C)C(NC(=O)c2ccc(N3CCC(CN4CCN(c5ccc6c(c5)C(=O)N(C5CCC(=O)NC5=O)C6=O)CC4)CC3)cc2)C(C)(C)C1Oc1ccc(C#N)c2ncccc12", "note": "(stereo not drawn) [Compound 2-21, N-(1,3-trans)-3-((8-cyanoquinolin-5-yl)oxy)-2,2,4,4-tetramethylcyclobutyl)-4-(4-((4-(2-(2,6-dioxopiperidin-3-yl)-1,3-dioxoisoindolin-5-yl)piperazin-1-yl)methyl)piperidin-1-yl)benzamide]", "values": [{"measurement": "DC50", "setting": "androgen receptor (AR) [1]", "result": 1.2, "unit": "nM"}, {"measurement": "GI50", "setting": "RAMOS cells", "result": "> 3000", "unit": "nM"}, {"measurement": "GI50", "setting": "VCAP cells", "result": 18, "unit": "nM"}, {"measurement": "DC50", "setting": "androgen receptor (AR) [2]", "result": 0.9, "unit": "nM"}, {"measurement": "DC50", "setting": "androgen receptor (AR) [3]", "result": 2.2, "unit": "nM"}]}
{"smiles": "CC1(C)C(NC(=O)c2ccc(N3CCC(CN4CCN(c5ccc6c(c5)CN([C@H]5CCC(=O)NC5=O)C6=O)CC4)CC3)c(F)c2)C(C)(C)C1Oc1ccc(C#N)c2ncccc12", "note": "(some centres unmarked) [Compound 2-32]", "values": [{"measurement": "DC50", "setting": "androgen receptor (AR) [1]", "result": 0.3, "unit": "nM"}, {"measurement": "GI50", "setting": "RAMOS cells", "result": "> 3000", "unit": "nM"}, {"measurement": "GI50", "setting": "VCAP cells", "result": 5.7, "unit": "nM"}, {"measurement": "DC50", "setting": "androgen receptor (AR) [2]", "result": 0.25, "unit": "nM"}, {"measurement": "DC50", "setting": "androgen receptor (AR) [3]", "result": 0.1, "unit": "nM"}]}
{"smiles": "CC1(C)C(NC(=O)c2cnc(N3CCC(CN4CCN(c5ccc6c(c5)C(=O)N(C5CCC(=O)NC5=O)C6=O)CC4)CC3)nc2)C(C)(C)C1Oc1ccc(C#N)c2ncccc12", "note": "(stereo not drawn) [Compound 2-18, N-(1,3-trans)-3-((8-cyanoquinolin-5-yl)oxy)-2,2,4,4-tetramethylcyclobutyl)-2-(4-((4-(2-(2,6-dioxopiperidin-3-yl)-1,3-dioxoisoindolin-5-yl)piperazin-1-yl)methyl)piperidin-1-yl)pyrimidine-5-carboxamide]", "values": [{"measurement": "DC50", "setting": "androgen receptor (AR) [1]", "result": 0.4, "unit": "nM"}, {"measurement": "DC50", "setting": "androgen receptor (AR) [3]", "result": 0.4, "unit": "nM"}]}
{"smiles": "CC1(C)[C@H](NC(=O)c2ccc(N3CCC(CN4CCN(c5ccc6c(c5)C(=O)N(C5CCC(=O)NC5=O)C6=O)CC4)CC3)nn2)C(C)(C)[C@H]1Oc1ccc(C#N)c2ncccc12", "note": "(some centres unmarked) [Compound 2-19]", "values": [{"measurement": "DC50", "setting": "androgen receptor (AR) [1]", "result": 1, "unit": "nM"}, {"measurement": "DC50", "setting": "androgen receptor (AR) [3]", "result": 0.5, "unit": "nM"}]}
{"smiles": "CC1(C)C(NC(=O)c2ccc(N3CCC(CCN4CCN(c5ccc6c(c5)C(=O)N(C5CCC(=O)NC5=O)C6=O)CC4)CC3)cc2)C(C)(C)C1Oc1ccc(C#N)c2ncccc12", "note": "(stereo not drawn) [Compound 2-43, N-(1,3-trans)-3-((8-cyanoquinolin-5-yl)oxy)-2,2,4,4-tetramethylcyclobutyl)-4-(4-(2-(4-(2-(2,6-dioxopiperidin-3-yl)-1,3-dioxoisoindolin-5-yl)piperazin-1-yl)ethyl)piperidin-1-yl)benzamide]", "values": [{"measurement": "DC50", "setting": "androgen receptor (AR) [1]", "result": 1.8, "unit": "nM"}, {"measurement": "GI50", "setting": "RAMOS cells", "result": "> 3000", "unit": "nM"}, {"measurement": "GI50", "setting": "VCAP cells", "result": 31.2, "unit": "nM"}, {"measurement": "DC50", "setting": "androgen receptor (AR) [3]", "result": 2, "unit": "nM"}]}
{"smiles": "CC1(C)[C@H](NC(=O)c2ccc(N3CCC(CN4CCN(c5ccc6c(c5)C(=O)N(C5CCC(=O)NC5=O)C6=O)CC4)CC3)c(F)c2)C(C)(C)[C@H]1Oc1ccc(C#N)c2ncccc12", "note": "(some centres unmarked) [Compound 2-22]", "values": [{"measurement": "DC50", "setting": "androgen receptor (AR) [1]", "result": 1.7, "unit": "nM"}, {"measurement": "GI50", "setting": "VCAP cells", "result": 8, "unit": "nM"}, {"measurement": "DC50", "setting": "androgen receptor (AR) [2]", "result": 2.8, "unit": "nM"}, {"measurement": "DC50", "setting": "androgen receptor (AR) [3]", "result": 1, "unit": "nM"}]}
{"smiles": "CC1(C)C(NC(=O)c2ccc(N3CCC(CN4CCN(c5ccc6c(c5)CN([C@H]5CCC(=O)NC5=O)C6=O)CC4)CC3)nc2)C(C)(C)C1Oc1ccc(C#N)c2ncccc12", "note": "(some centres unmarked) [Compound 2-29]", "values": [{"measurement": "GI50", "setting": "RAMOS cells", "result": "> 3000", "unit": "nM"}, {"measurement": "GI50", "setting": "VCAP cells", "result": 2.1, "unit": "nM"}, {"measurement": "DC50", "setting": "androgen receptor (AR) [2]", "result": 0.13, "unit": "nM"}, {"measurement": "DC50", "setting": "androgen receptor (AR) [3]", "result": 0.1, "unit": "nM"}]}
{"smiles": "CC1(C)C(NC(=O)c2ccc(N3CCC(CN4CCN(c5ccc6c(c5)C(=O)N(C5CCC(=O)NC5=O)C6=O)CC4)CC3)nc2)C(C)(C)C1Oc1ccc(C#N)c2ncccc12", "note": "(stereo not drawn) [Compound 2-13, N-(1,3-trans)-3-((8-cyanoquinolin-5-yl)oxy)-2,2,4,4-tetramethylcyclobutyl)-6-(4-((4-(2-(2,6-dioxopiperidin-3-yl)-1,3-dioxoisoindolin-5-yl)piperazin-1-yl)methyl)piperidin-1-yl)nicotinamide]", "values": [{"measurement": "DC50", "setting": "androgen receptor (AR) [1]", "result": 0.7, "unit": "nM"}, {"measurement": "GI50", "setting": "RAMOS cells", "result": "> 3000", "unit": "nM"}, {"measurement": "GI50", "setting": "VCAP cells", "result": 47.6, "unit": "nM"}, {"measurement": "DC50", "setting": "androgen receptor (AR) [3]", "result": 0.7, "unit": "nM"}]}
{"smiles": "CC1(C)[C@H](NC(=O)c2ccc(N3CCC(CN4CCN(c5ccc6c(c5)CN([C@H]5CCC(=O)NC5=O)C6=O)CC4)CC3)cc2)C(C)(C)[C@H]1Oc1ccc(C#N)c2ncccc12", "note": "[Compound 2-49, N-((1,3-trans)-3-((8-cyanoquinolin-5-yl)oxy)-2,2,4,4-tetramethylcyclobutyl)-4-(4-((4-(2-((S)-2,6-dioxopiperidin-3-yl)-1-oxoisoindolin-5-yl)piperazin-1-yl)methyl)piperidin-1-yl)benzamide]", "values": [{"measurement": "DC50", "setting": "androgen receptor (AR) [1]", "result": 0.4, "unit": "nM"}, {"measurement": "GI50", "setting": "RAMOS cells", "result": "> 3000", "unit": "nM"}, {"measurement": "GI50", "setting": "VCAP cells", "result": 8.2, "unit": "nM"}, {"measurement": "DC50", "setting": "androgen receptor (AR) [2]", "result": 0.4, "unit": "nM"}, {"measurement": "DC50", "setting": "androgen receptor (AR) [3]", "result": 0.4, "unit": "nM"}]}
